Measured values taken from PubChem BioAssay AID2060623 (Molecular Pharmacology Branch, DTP, NCI, 2025).
Several values for one entry are separate records, joined by “and”; a condition that tells them apart may be missing. Equal entries are not always repeated.

System: 227483-062-R1-J1-PDC complex spheroids with HUVEC/MSC, viability
Experiment: Anticancer human tumor 227483-062-R1-J1-PDC patient-derived pancreatic carcinoma cell line growth inhibition [CLK]
Conditions: for viability, T/C: stronger effect = lower value; active = viability on the fitted dose curve at most 10% of control; inactive = the rest
From the text: A high-throughput screen of multi-cell type tumor spheroids was designed to identify active combinations of […] and targeted small molecules. Complex spheroids include a stromal component modeled by human endothelial cells (HUVEC) and fibroblasts modeled by human mesenchymal stem cells (MSCs). The concentration ranges selected for each drug and investigational agent were based upon clinically achievable concentrations if the clinical Cmax of the agent was known.
Compounds. The drugs and investigational agents: cirtuvivint (SM08502; NSC835563), CC-671 (NSC850746), vemurafenib (NSC761431), tapotoclax (NSC804041), sotorasib (NSC818433), adagrasib (NSC831453), MRTX-1133 (NSC836407), BAY2416964 (NSC825713), copanlisib (NSC816437), inavolisib (NSC800729), abemaciclib (NSC768073), osimertinib (NSC779217), entinostat (NSC756642), eltanexor (KPT-8602, NSC794443), venetoclax (NSC766270), ceralasertib (NSC777638), bortezomib (NSC756655), olaparib (NSC753686), talazoparib (NSC767125), alisertib (NSC759677), peposertib (NSC802822), gemcitabine (NSC613327), 5-fluorouracil (NSC19893), SN-38 (NSC673596), oxaliplatin (NSC266046), paclitaxel (NSC125973), and doxorubicin (NSC123127), were obtained from the National Cancer Institute (NCI) Developmental Therapeutics Program Chemical Repository. The FDA-approved anticancer drug set is available from the Developmental Therapeutics Program at https://dtp.cancer.gov/organization/dscb/obtaining/available plates.htm. […] The stock solutions were prepared in dimethyl sulfoxide (DMSO, Sigma-Aldrich, St. Louis, MO, cat. D2650), except for the platinum complexes which were prepared in saline (Quality Biological, Gaithersburg, MD, cat. 114-055-101), at 800-fold the tested concentration and stored at -70 degrees C prior to their use. All drugs and investigational agents were tested over a range starting from a high concentration at or near the clinical Cmax and decreasing in half-log increments. If the clinical Cmax for an agent had not been determined, the highest concentration tested was 10 microM.
Cell Culture. All cells were maintained in an incubator at 37 degrees C and 5% CO2 with 95% humidity. The PDC lines were cultured according to standard operating procedures established by the NCI PDMR. Briefly, all PDCs were thawed and cultured in Matrigel-coated flasks prepared with a working solution of 1X Ham's F-12 nutrient mix, without supplementation (Invitrogen, Waltham, MA, cat. 11765054), 100 U/mL penicillin-streptomycin (Invitrogen, cat. 15140122), and 2.5% Matrigel (Corning Inc., Corning, NY, cat. 354248) for the first three passages. The 947758-054-R-J2-PDC line was cultured in 6B/Colon 1A media, which includes advanced DMEM/F-12 (Thermo Fisher Scientific, cat. 12634028), 10 mM HEPES (Thermo Fisher Scientific, cat. 15630080), 1X GlutaMAX supplement (Thermo Fisher Scientific, cat. 35050061), 0.1 mg/mL primocin (InvivoGen, cat. ant-pm-2), 10% defined fetal bovine serum, heat inactivated (HyClone Laboratories Inc., cat. SH30070.03HI), 1.25 mM N-Acetyl-L-cysteine (Sigma-Aldrich, cat. A9165), 10 mM nicotinamide (Sigma-Aldrich, cat. N0636), 1X B-27 supplement (Thermo Fisher Scientific, cat. 17504044), 1X N-2 supplement (Thermo Fisher Scientific, cat. 17502048), and 10 microM Y-27632 dihydrochloride (Tocris Bioscience, cat. 1254). The 876862-298-R-J1-PDC was cultured in 6E media, which includes all 6B/Colon 1A media components plus 50% L-WRN conditioned media (ATCC, cat. CRL-3276), 50 ng/mL recombinant human EGF recombinant protein (hEGF; Thermo Fisher Scientific, cat. PHG0311), 10 ng/mL recombinant human fibroblast growth factor 10 (hGFG-10; PeproTech, cat. 100-26), 1 ng/mL recombinant human fibroblast growth factor 2 (hFGF-2; PeproTech, cat. 100-18B), and 1 µM prostaglandin E2 (PGE2; Tocris, cat. 2296). The 227483-062-R1-J1-PDC line was cultured in Panc media, containing all 6E components except hFGF-2, with the addition of 500 nM SB-431542 (Selleckchem, cat. S1067) and 10 nM gastrin (Tocris, cat. 3006). […]

[1] = curve of first compound, second compound 0.0316 µM
[2] = curve of first compound, second compound 0.1 µM
[3] = curve of first compound, second compound 0.316 µM
[4] = curve of first compound, second compound 1 µM
[5] = curve of first compound, second compound 3.16 µM
[6] = curve of first compound, second compound 10 µM
[7] = second compound 0.0316 µM, first compound 0.00316 µM
[8] = second compound 0.0316 µM, first compound 0.01 µM
[9] = second compound 0.0316 µM, first compound 0.0316 µM
[10] = second compound 0.0316 µM, first compound 0.1 µM
[11] = second compound 0.0316 µM, first compound 0.316 µM
[12] = second compound 0.0316 µM, first compound 1 µM
[13] = second compound 0.1 µM, first compound 0.00316 µM
[14] = second compound 0.1 µM, first compound 0.01 µM
[15] = second compound 0.1 µM, first compound 0.0316 µM
[16] = second compound 0.1 µM, first compound 0.1 µM
[17] = second compound 0.1 µM, first compound 0.316 µM
[18] = second compound 0.1 µM, first compound 1 µM
[19] = second compound 0.316 µM, first compound 0.00316 µM
[20] = second compound 0.316 µM, first compound 0.01 µM
[21] = second compound 0.316 µM, first compound 0.0316 µM
[22] = second compound 0.316 µM, first compound 0.1 µM
[23] = second compound 0.316 µM, first compound 0.316 µM
[24] = second compound 0.316 µM, first compound 1 µM
[25] = second compound 1 µM, first compound 0.00316 µM
[26] = second compound 1 µM, first compound 0.01 µM
[27] = second compound 1 µM, first compound 0.0316 µM
[28] = second compound 1 µM, first compound 0.1 µM
[29] = second compound 1 µM, first compound 0.316 µM
[30] = second compound 1 µM, first compound 1 µM
[31] = second compound 3.16 µM, first compound 0.00316 µM
[32] = second compound 3.16 µM, first compound 0.01 µM
[33] = second compound 3.16 µM, first compound 0.0316 µM
[34] = second compound 3.16 µM, first compound 0.1 µM
[35] = second compound 3.16 µM, first compound 0.316 µM
[36] = second compound 3.16 µM, first compound 1 µM
[37] = second compound 10 µM, first compound 0.00316 µM
[38] = second compound 10 µM, first compound 0.01 µM
[39] = second compound 10 µM, first compound 0.0316 µM
[40] = second compound 10 µM, first compound 0.1 µM
[41] = second compound 10 µM, first compound 0.316 µM
[42] = second compound 10 µM, first compound 1 µM
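Also: spheroids exposed to compounds for seven days before readout.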
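For viability, T/C in this document: percent of DMSO vehicle control luminescence as 100% viability.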

CCN1CCN(Cc2ccc(Nc3ncc(F)c(-c4cc(F)c5nc(C)n(C(C)C)c5c4)n3)nc2)CC1 + CNC(=O)c1ccc(Nc2nc(OC3CCCC3)c3c(-c4ccc5nc(C)oc5c4)c[nH]c3n2)c(OC)c1
0.577 µM: IC50 [5]
> 1 µM: IC50 [1] | IC50 [2] | IC50 [3] | IC50 [4] | IC50 [6]
inactive: viability, T/C [7] 103% | viability, T/C [8] 89.3% | viability, T/C [9] 86.9% | viability, T/C [10] 82.1% | viability, T/C [11] 79.3% | viability, T/C [12] 81.8% | viability, T/C [13] 103% | viability, T/C [14] 115% | viability, T/C [15] 95.3% | viability, T/C [16] 103% | viability, T/C [17] 76.9% | viability, T/C [18] 79% | viability, T/C [19] 86.3% | viability, T/C [20] 94.2% | viability, T/C [21] 88.8% | viability, T/C [22] 74% | viability, T/C [23] 70.7% | viability, T/C [24] 67.9% | viability, T/C [25] 75.4% | viability, T/C [26] 72.4% | viability, T/C [27] 64.4% | viability, T/C [28] 75.1% | viability, T/C [29] 60.6% | viability, T/C [30] 53.1% | viability, T/C [31] 65% | viability, T/C [32] 64.7% | viability, T/C [33] 61.7% | viability, T/C [34] 57.4% | viability, T/C [35] 60.8% | viability, T/C [36] 41.4% | viability, T/C [37] 41.9% | viability, T/C [38] 56.5% | viability, T/C [39] 60.4% | viability, T/C [40] 74.6% | viability, T/C [41] 65.2% | viability, T/C [42] 37.1%

CC1COCCN1c1cc(C2(S(C)(=N)=O)CC2)nc(-c2ccnc3[nH]ccc23)n1 (stereo not drawn)
> 10 µM: IC50 (curve of compound)
inactive: viability, T/C (compound 0.0316 µM) 98% and 93.4% | viability, T/C (compound 0.1 µM) 93.6% and 101% | viability, T/C (compound 0.316 µM) 89.4% and 103% | viability, T/C (compound 1 µM) 110% and 109% | viability, T/C (compound 3.16 µM) 86.9% and 78.7% | viability, T/C (compound 10 µM) 62.2% and 53.5%

CC(CO)NC(=O)c1cc(-c2ccc(Cl)cc2)nn(-c2cnn(C)c2)c1=O (stereo not drawn) + CN1CCN(c2cc(C(=O)Nc3cc4cc(-c5cnn(C)c5)ccc4cn3)ccn2)CC1
< 0.0316 µM: IC50 [3] | IC50 [4] | IC50 [5] | IC50 [6]
> 10 µM: IC50 [1] | IC50 [2]
active: viability, T/C [21] 6.17% | viability, T/C [22] 7.14% | viability, T/C [23] 9.66% | viability, T/C [24] 6.91% | viability, T/C (second compound 0.316 µM, first compound 3.16 µM) 8.13% | viability, T/C (second compound 0.316 µM, first compound 10 µM) 5.79% | viability, T/C [27] 2.97% | viability, T/C [28] 2.61% | viability, T/C [29] 3.05% | viability, T/C [30] 3.03% | viability, T/C (second compound 1 µM, first compound 3.16 µM) 1.78% | viability, T/C (second compound 1 µM, first compound 10 µM) 1.92% | viability, T/C [33] 4.36% | viability, T/C [34] 4.28% | viability, T/C [35] 3.59% | viability, T/C [36] 2.83% | viability, T/C (second compound 3.16 µM, first compound 3.16 µM) 3.7% | viability, T/C (second compound 3.16 µM, first compound 10 µM) 3.41% | viability, T/C [39] 4.97% | viability, T/C [40] 2.72% | viability, T/C [41] 2.16% | viability, T/C [42] 2.15% | viability, T/C (second compound 10 µM, first compound 3.16 µM) 2.52% | viability, T/C (second compound 10 µM, first compound 10 µM) 3%
inactive: viability, T/C [9] 88.9% | viability, T/C [10] 89.1% | viability, T/C [11] 98.5% | viability, T/C [12] 94% | viability, T/C (second compound 0.0316 µM, first compound 3.16 µM) 94.7% | viability, T/C (second compound 0.0316 µM, first compound 10 µM) 82.4% | viability, T/C [15] 65.2% | viability, T/C [16] 61.3% | viability, T/C [17] 66.4% | viability, T/C [18] 69% | viability, T/C (second compound 0.1 µM, first compound 3.16 µM) 63.2% | viability, T/C (second compound 0.1 µM, first compound 10 µM) 65.4%

COc1c(OCCCN2CCOCC2)ccc2c3n(c(=NC(=O)c4cnc(N)nc4)nc12)CCN3 + CNC(=O)c1ccc(Nc2nc(OC3CCCC3)c3c(-c4ccc5nc(C)oc5c4)c[nH]c3n2)c(OC)c1
< 0.00316 µM: IC50 [6]
0.00426 µM: IC50 [5]
0.0612 µM: IC50 [3]
inactive: viability, T/C [7] 94.9% | viability, T/C [8] 93.6% | viability, T/C [9] 79.5% | viability, T/C [10] 69% | viability, T/C [11] 70% | viability, T/C [12] 51.2% | viability, T/C [13] 96% | viability, T/C [14] 89.5% | viability, T/C [15] 56.2% | viability, T/C [16] 58.7% | viability, T/C [17] 44.1% | viability, T/C [18] 41% | viability, T/C [19] 87.4% | viability, T/C [20] 55.1% | viability, T/C [21] 59.8% | viability, T/C [22] 52.2% | viability, T/C [23] 37.9% | viability, T/C [24] 32.2% | viability, T/C [25] 55.9% | viability, T/C [26] 56.7% | viability, T/C [27] 39.9% | viability, T/C [28] 32.2% | viability, T/C [29] 26.3% | viability, T/C [30] 20.6% | viability, T/C [31] 50.3% | viability, T/C [32] 48.3% | viability, T/C [33] 34.9% | viability, T/C [34] 22.3% | viability, T/C [35] 18.4% | viability, T/C [36] 14.8% | viability, T/C [37] 43.1% | viability, T/C [38] 36.9% | viability, T/C [39] 30.3% | viability, T/C [40] 21.2% | viability, T/C [41] 18% | viability, T/C [42] 16.3%
0.0106 µM: IC50 [4]
> 1 µM: IC50 [1]
0.0807 µM: IC50 [2]
